# Patent US20210186947A1, “TOMM6-INTERACTING EXTRACTS AND COMPOUNDS FOR USE IN THE TREATMENT AND PROPHYLAXIS OF NERVOUS SYSTEM DISEASES, ATHEROSCLEROSIS, HEPATITIS B INFECTION AND HUMAN PAPILLOMA VIRUS (HPV) INFECTION” (ETH ZURICH, priority 2018, published 2021)
# Tests used:
# neuropeptide Y (Npy) = experiment: Whole genome microarray gene expression analysis of aortic genes: Npy; assay type: in vivo; details: ApoE-/- mice, 10 mg/kg/day for 8 months
# Experimental: (§1) Whole genome microarray gene expression profiling was performed with aortic specimens isolated from 9-month-old ApoE−/− mice without treatment and with oral treatment for 8 months with alizarin (10 mg/kg/day), and untreated age-matched B6 control mice. Total RNA was isolated by the RNeasy Mini kit according to the protocol of the manufacturer (Qiagen). RNA purity was between 1.8 and 2 as determined by the absorbance ratio of 260/280. RNA quality and absence of signs of degradation were also controlled by RNA electrophoresis on a denaturing agarose gel by the presence of bright bands of 28S and 18S ribosomal RNA. Total RNA was processed for whole genome microarray gene expression profiling with the GeneChip One-Cycle Target Labeling System (Affymetrix) according to the protocol of the manufacturer (Affymetrix GeneChip Expression Analysis Technical Manual Rev. 5). […]
# (§2) Alzheimer's Disease (AD) is the most frequent form of dementia in the elderly. […] Atherosclerotic lesion area was assessed with oil red O-stained aortas isolated from 9-month-old ApoE−/− mice (FIG. 17A). […] The aortic expression levels of neuronal marker genes of alizarin-treated ApoE−/− mice were determined compared to untreated ApoE−/− mice and untreated B6 mice without atherosclerosis (FIG. 17D,E).
# Ccr9 = experiment: Whole genome microarray gene expression analysis of aortic genes: Ccr9; assay type: in vivo; details: ApoE-/- mice, 10 mg/kg/day for 8 months
# Experimental: as §1, §2
compound,measurement,setting,value
"O=C1c2ccccc2C(=O)c2c1ccc(O)c2O [Compound-1, 1,2-dihydroxyanthraquinone]",aortic expression level of Npy,neuropeptide Y (Npy),not down-regulated and maintained at the levels of the non-transgenic B6 controls
same,aortic expression of Ccr9,Ccr9,significantly decreased expression
